Reference: patent US10858335B2 (Rigel Pharmaceuticals, Inc., priority 2014, dated 2020)

Tested on: GDF8 signaling (p-SMAD-3 (Ser423/425))
Assay: AlphaScreen SureFire SMAD3 (p-Ser423/425) assay, GDF8-stimulated cells (GDF pSMAD)
Type: cell-based
Settings: Mus musculus, MPC-11, GDF8-stimulated pSMAD3, MPC11; tested as the salt form given; read-out: GDF pSMAD (MPC11) (μM), inhibition of GDF8 signaling

Molecule `Cc1cc(-c2ncccc2-c2ccc3ncnn3c2)c(C)cc1F` [compound 1064] has an IC50 of 0.804 µM.

Same assay, conditions: Mus musculus, MPC-11, MPC11; GDF8-stimulated; p-SMAD3 AlphaScreen; read-out: GDF pSMAD (MPC11) (inhibition of GDF8 signaling)

In order of falling IC50:
1. Cc1cccc(-c2ncccc2-c2ccc3nc(C)cn3c2)c1 [compound 532, 2-Methyl-6-(2-(m-tolyl)pyridin-3-yl)imidazo[1,2-a]pyridine]  17.7 µM
2. Cc1cc(-c2ncc(NC(=O)NC(C)C)cc2-c2ccc3c(cnn3C(=O)NC(C)C)c2)ccc1F [compound 215, 5-(2-(4-Fluoro-3-methylphenyl)-5-(3-isopropylureido)pyridin-3-yl)-N-isopropyl-1H-indazole-1-carboxamide]  15.7 µM
3. Fc1cc(-c2ncccc2-c2ccn3ncnc3c2)cc(F)c1F [compound 875, 7-(2-(3,4,5-Trifluorophenyl)pyridin-3-yl)-[1,2,4]triazolo[1,5-a]pyridine]  12.4 µM
4. Cc1ccc(-c2ncccc2-c2ccc3ncnc(N)c3c2)cc1F [compound 459, 6-(2-(3-Fluoro-4-methylphenyl)pyridin-3-yl)quinazolin-4-amine]  11.5 µM
5. Cc1cc(-c2ncccc2-c2ccc3ncc(C(=O)Nc4ccc(S(N)(=O)=O)cc4)n3c2)ccc1F [compound 617, 6-(2-(4-Fluoro-3-methylphenyl)pyridin-3-yl)-N-(4-sulfamoylphenyl)imidazo[1,2-a]pyridine-3-carboxamide]  10.8 µM
6. Cc1cc(-c2ncc(CN3CCN(C)CC3)cc2-c2ccc3nccnc3c2)ccc1F [compound 230, 6-(2-(4-Fluoro-3-methylphenyl)-5-((4-methylpiperazin-1-yl)methyl)pyridin-3-yl)quinoxaline]  10.8 µM
7. Fc1cccc(-c2ncccc2-c2ccc3ncsc3c2)c1F [compound 662, 6-(2-(2,3-Difluorophenyl)pyridin-3-yl)benzo[d]thiazole]  9.64 µM
8. Cc1c(F)cccc1-c1ncccc1-c1ccc2ncnc(N)c2c1 [compound 468, 6-(2-(3-Fluoro-2-methylphenyl)pyridin-3-yl)quinazolin-4-amine]  7.82 µM
9. N#Cc1cnc2ccc(-c3cccnc3-c3ccc(F)cc3)cn12 [compound 625, 6-(2-(4-Fluorophenyl)pyridin-3-yl)imidazo[1,2-a]pyridine-3-carbonitrile]  7.79 µM
10. N#Cc1cnc2ccc(-c3cccnc3-c3ccccc3F)cn12 [compound 623, 6-(2-(2-Fluorophenyl)pyridin-3-yl)imidazo[1,2-a]pyridine-3-carbonitrile]  6.87 µM
11. Cc1cccc(-c2ncccc2-c2ccc3nncn3c2)c1 [Compound 162, 6-(2-m-Tolylpyridin-3-yl)-[1,2,4]triazolo[4,3-a]pyridine]  5.66 µM
12. COc1cnc(-c2ccc(F)c(C)c2)c(-c2ccc3[nH]ncc3c2)c1 [Compound 8, 5-(2-(4-Fluoro-3-methylphenyl)-5-methoxypyridin-3-yl)-1H-indazole]  5.35 µM
13. Cc1cc(-c2ncc(Nc3ccncc3)cc2-c2ccc3ncsc3c2)ccc1F [compound 311, 5-(Benzo[d]thiazol-6-yl)-6-(4-fluoro-3-methylphenyl)-N-(pyridin-4-yl)pyridin-3-amine]  4.72 µM
14. COc1cc(NC(=O)n2ncc3cc(-c4cccnc4-c4ccc(F)c(C)c4)ccc32)cc(OC)c1OC [compound 630, 5-(2-(4-Fluoro-3-methylphenyl)pyridin-3-yl)-N-(3,4,5-trimethoxyphenyl)-1H-indazole-1-carboxamide]  4.15 µM
15. Cc1cccc(-c2ncc(NC(=O)NC(C)C)cc2-c2ccc3[nH]ncc3c2)c1 [compound 214, 1-(5-(1H-Indazol-5-yl)-6-(m-tolyl)pyridin-3-yl)-3-isopropylurea]  2.64 µM
16. Cc1cc(-c2ncccc2-c2ccn3ncc(C(=O)N[C@H]4CN5CCC4CC5)c3c2)ccc1F [compound 793, (R)-5-(2-(4-Fluoro-3-methylphenyl)pyridin-3-yl)-N-(quinuclidin-3-yl)pyrazolo[1,5-a]pyridine-3-carboxamide]  2.08 µM
17. Cc1cc(-c2ncccc2-c2ccn3c(C(=O)NCCCn4ccnc4)ncc3c2)ccc1F [compound 277, N-(3-(1H-Imidazol-1-yl)propyl)-7-(2-(4-fluoro-3-methylphenyl)pyridin-3-yl)imidazo[1,5-a]pyridine-3-carboxamide]  1.67 µM
18. Cc1cc(-c2ncc(-c3cccc(S(N)(=O)=O)c3)cc2-c2ccc3ncsc3c2)ccc1F [compound 347, 3-(5-(Benzo[d]thiazol-6-yl)-6-(4-fluoro-3-methylphenyl)pyridin-3-yl)benzenesulfonamide]  1.49 µM
19. CC(=O)c1cnc2ccc(-c3cccnc3-c3ccc(F)c(Cl)c3)cn12 [compound 762, 1-(6-(2-(3-Chloro-4-fluorophenyl)pyridin-3-yl)imidazo[1,2-a]pyridin-3-yl)ethan-1-one]  1.19 µM
20. Cc1cccc(-c2ncccc2-c2ccc3c(=O)nc[nH]c3c2)c1 [compound 349, 7-(2-(m-Tolyl)pyridin-3-yl)quinazolin-4(1H)-one]  1.01 µM
21. CCOC(=O)c1cnn2ccc(-c3cccnc3-c3ccc(F)c(C)c3)cc12 [compound 677, Ethyl 5-(2-(4-Fluoro-3-methylphenyl)pyridin-3-yl)pyrazolo[1,5-a]pyridine-3-carboxylate]  0.562 µM
22. Nc1ncnc2ccc(-c3cccnc3-c3cccc(F)c3)cc12 [compound 461, 6-(2-(3-Fluorophenyl)pyridin-3-yl)quinazolin-4-amine]  0.551 µM
23. Cc1cc(-c2ncccc2-c2ccc3ncn(C)c(=O)c3c2)ccc1F [compound 340, 6-(2-(4-Fluoro-3-methylphenyl)pyridin-3-yl)-3-methylquinazolin-4(3H)-one]  0.464 µM
24. Cc1ccc(F)c(-c2ncccc2-c2cnc3[nH]ncc3c2)c1 [Compound 153, 5-(2-(2-Fluoro-5-methylphenyl)pyridin-3-yl)-1H-pyrazolo[3,4-b]pyridine]  0.45 µM
25. Cc1cc(-c2ncccc2-c2ccn3nccc3c2)ccc1F [compound 756, 5-(2-(4-Fluoro-3-methylphenyl)pyridin-3-yl)pyrazolo[1,5-a]pyridine]  0.364 µM
26. N#Cc1cccc(-c2ncccc2-c2ccc3[nH]ncc3c2)c1 [Compound 112, 3-(3-(1H-Indazol-5-yl)pyridin-2-yl)benzonitrile]  0.273 µM
27. Cc1cc(-c2ncccc2-c2ccc3nccn3c2)ccc1F [Compound 165, 6-(2-(4-Fluoro-3-methylphenyl)pyridin-3-yl)imidazo[1,2-a]pyridine]  0.265 µM
28. Cc1cccc(-c2ncccc2-c2ccc3[nH]cnc(=O)c3c2)c1 [compound 361, 6-(2-(m-tolyl)pyridin-3-yl)quinazolin-4(1H)-one]  0.23 µM
29. Cc1cc(-c2ncccc2-c2ccn3ncc(C(=O)NC4CC(C)(C)N(C)C(C)(C)C4)c3c2)ccc1F [compound 703, 5-(2-(4-Fluoro-3-methylphenyl)pyridin-3-yl)-N-(1,2,2,6,6-pentamethylpiperidin-4-yl)pyrazolo[1,5-a]pyridine-3-carboxamide]  0.208 µM
30. c1cc(-c2ncccc2-c2ccc3[nH]ncc3c2)cc(C2CC2)c1 [Compound 150, 5-(2-(3-Cyclopropylphenyl)pyridin-3-yl)-1H-indazole]  0.208 µM
31. Fc1ccc(Cl)cc1-c1ncccc1-c1ccn2nccc2n1 [compound 917, 5-(2-(5-Chloro-2-fluorophenyl)pyridin-3-yl)pyrazolo[1,5-a]pyrimidine]  0.18 µM
